Values after ≈ are worked out from the molar mass of the structure shown.
Key:
[1] = test system: HCT-8; experiment: Cytotoxicity against human HCT8 cells; type: functional, cell-based
[2] = test system: Artemia; experiment: (§1) Toxicity in brine shrimp; type: organism-based; details: in vivo
[3] = test system: A498; experiment: Cytotoxicity against human A-498 cells; type: functional; details: Homo sapiens, A498; read-out: ED50 (the source's name)
[4] = test system: MIA PaCa-2; experiment: Cytotoxicity against human MIA PaCa2 cells; type: functional; details: for EC50: Homo sapiens, MIA PaCa-2, read-out: ED50 (the source's name)
[5] = test system: A549; experiment: Cytotoxicity against human A549 cells; type: functional; details: for EC50: Homo sapiens, A549, read-out: ED50 (the source's name)
[6] = test system: PC-3; experiment: Cytotoxicity against human PC-3 cells; type: functional; details: for EC50: Homo sapiens, PC-3, read-out: ED50 (the source's name)
[7] = test system: MCF7; experiment: Cytotoxicity against human MCF7 cells; type: functional; details: for EC50: Homo sapiens, MCF7, read-out: ED50 (the source's name)
[8] = test system: Blattella germanica; experiment: Ratio of LT50 for Blattella germanica Muncie second instars to LT50 for Blattella germanica Jwax second instars; type: functional
[9] = test system: Blattella germanica; experiment: Ratio of LT50 for Blattella germanica Muncie fifth instars to LT50 for Blattella germanica Jwax fifth instars; type: functional
[10] = as §1; type: organism-based; details: artemia, in vivo
[11] = test system: HT-29; experiment: Cytotoxicity against human HT-29 cells; type: functional; details: for EC50: Homo sapiens, HT-29, read-out: ED50 (the source's name)
[12] = test system: KB; experiment: Cytotoxicity against human KB cells; type: functional, cell-based; details: for IC50: Homo sapiens, KB

`CCCCCCCCCCCC[C@H](O)[C@@H]1CC[C@H]([C@H](O)CCCCC(O)CCCCC[C@@H](O)CC2=C[C@@](C)(O)OC2=O)O1` (stereo partly drawn) gave an IC50 [1] of under 10 µg/mL.
`CCCCC[C@H](O)[C@H](O)CCC[C@H](O)[C@H]1CC[C@H]([C@H]2CC[C@H]([C@H](O)CCCCCCCCCCCCC3=C[C@H](C)OC3=O)O2)O1` (stereo in doubt; 97) [PURPUREDIOLIN] showed an LC50 [2] of 7 ×10⁻² ug/ml, an EC50 [3] of 1.4 µg/mL (≈ 2.19 µM) and an ED50 [4] of 1.4 µg/mL (≈ 2.19 µM). The ED50 [5] was 4.4 ×10⁻¹ ug/ml, the ED50 [6] was 3.5 ×10⁻¹ ug/ml and the EC50 [7] was 0.92 µg/mL (≈ 1.44 µM).
`CC1(C)C(C=C(Cl)Cl)C1C(=O)OC(C#N)c1cccc(Oc2ccccc2)c1` (stereo not drawn) [ALPHA-CYPERMETHRIN] gave a Ratio [8] of 2.
Work on `CCCCCCCCCCCC[C@H](O)[C@@H]1CC[C@@H]([C@@H](O)CCCCCCC(O)CCCCC[C@@H](O)CC2=C[C@H](C)OC2=O)O1` (stereo partly drawn) [ANNOMONTACIN] yielded a Ratio [9] of 0.2 and a Ratio [8] of 0.6.
Work on `CCCCCCCCCCCC[C@@H](O)[C@H](O)CC[C@H](O)[C@@H]1CC[C@@H](C[C@H](O)CCCCC[C@@H](O)CC2=C[C@H](C)OC2=O)O1` [ANNOPENTOCIN A] yielded an LC50 [10] of 8.9 µg/mL (≈ 14.5 µM), an EC50 [3] of 0.61 µg/mL (≈ 0.995 µM) and an EC50 [4] of 0.036 µg/mL (≈ 0.0587 µM). It also gave an EC50 [5] of 0.17 µg/mL (≈ 0.277 µM), an EC50 [6] of 1.1 µg/mL (≈ 1.79 µM) and an EC50 [7] of 18 µg/mL (≈ 29.4 µM). It also gave an EC50 [11] of 1.6 µg/mL (≈ 2.61 µM).
In the case of `CCCCCCCCCCCC[C@H](O)[C@@H](O)CC[C@H](O)[C@@H]1CC[C@@H](C[C@H](O)CCCCC[C@@H](O)CC2=C[C@H](C)OC2=O)O1` [ANNOPENTOCIN B], the LC50 [10] was 0.11 µg/mL (≈ 0.179 µM), the EC50 [3] was 0.38 µg/mL (≈ 0.62 µM) and the EC50 [4] was 0.16 µg/mL (≈ 0.261 µM). It also gave an EC50 [5] of 0.027 µg/mL (≈ 0.0441 µM), an EC50 [6] of 0.21 µg/mL (≈ 0.343 µM) and an EC50 [7] of 3.6 µg/mL (≈ 5.87 µM). It also gave an EC50 [11] of 1.6 µg/mL (≈ 2.61 µM).
Molecule `CCCCCCCCCCCC[C@H](O)[C@H](O)CC[C@H](O)[C@@H]1CC[C@@H](C[C@H](O)CCCCC[C@@H](O)CC2=C[C@H](C)OC2=O)O1` [ANNOPENTOCIN C] has an LC50 [10] of 14 µg/mL (≈ 22.8 µM), an EC50 [3] of 0.26 µg/mL (≈ 0.424 µM) and an EC50 [4] of 0.43 µg/mL (≈ 0.702 µM). It also gave an EC50 [5] of 0.021 µg/mL (≈ 0.0343 µM), an EC50 [6] of 0.23 µg/mL (≈ 0.375 µM) and an EC50 [7] of 0.3 µg/mL (≈ 0.489 µM). For the same molecule, the EC50 [11] was 1.2 µg/mL (≈ 1.96 µM).
In the case of `CCCCCCCCCCC(O)C1CCC(C2CCC(C(O)CCCCCCCC[C@H](O)CC3=C[C@@H](C)OC3=O)O2)O1` (stereo partly drawn) [ASIMICIN], the Ratio [9] was 1.6 and the Ratio [8] was 0.9.
For `CNC(=O)Oc1cccc2c1OC(C)(C)O2` [BENDIOCARB], the Ratio [9] was 0.9 and the Ratio [8] was 2.5.
Work on `CC[C@H](O)[C@H](O)CCCCCC[C@H](O)[C@H]1CC[C@H]([C@H]2CC[C@H]([C@H](O)CCCCCCCCCCCCC3=C[C@H](C)OC3=O)O2)O1` [BULLATETROCIN] yielded an LC50 [10] of 0.31 µg/mL (≈ 0.485 µM), an EC50 [3] of over 1 µg/mL and an EC50 [4] of over 1 µg/mL. For the same molecule, the EC50 [5] was 0.35 µg/mL (≈ 0.548 µM), the EC50 [6] was over 1 µg/mL and the EC50 [7] was 0.5 µg/mL (≈ 0.783 µM). For the same molecule, the EC50 [11] was 0.33 µg/mL (≈ 0.516 µM).
In the case of `CCCCCCC(O)CCC[C@H](O)[C@@H]1CC[C@@H]([C@@H]2CC[C@H]([C@H](O)CCCCCCCCCCCCC3=C[C@H](C)OC3=O)O2)O1` (stereo partly drawn) [CAROLIN A], the ED50 [12] was 1 ×10⁻⁷ ug/ml.
`CCCCCC(O)CCCC[C@H](O)[C@@H]1CC[C@@H]([C@@H]2CC[C@H]([C@H](O)CCCCCCCCCCCCC3=C[C@H](C)OC3=O)O2)O1` (stereo partly drawn) [CAROLIN B] showed an ED50 [12] of 5 ×10⁻⁶ ug/ml.
Molecule `CCOP(=S)(OCC)Oc1nc(Cl)c(Cl)cc1Cl` [CHLORPYRIFOS] has a Ratio [9] of 8 and a Ratio [8] of 3.8.
In the case of `CCCCCCCCCCCC[C@@H](O)[C@H]1CC[C@H]([C@H](O)CCCCCCCCCC[C@@H](O)CC2=C[C@@](C)(O)OC2=O)O1` [DONNAIENIN A], the IC50 [1] was under 10 µg/mL and the IC50 [12] was under 1 µg/mL.
`CCCCCCCCCCCCCC[C@H](O)[C@@H](O)CC[C@H](O)[C@@H]1CC[C@@H](CCCCC[C@@H](O)CC2=C[C@@](C)(O)OC2O)O1` (stereo partly drawn) [DONNAIENIN B] gave an IC50 [12] of 10 µg/mL (≈ 16.3 µM).
`CCCCCCCCCCCCCC[C@@H](O)[C@H](O)CC[C@H](O)[C@@H]1CC[C@@H](CCCCC[C@@H](O)CC2=C[C@H](C)OC2=O)O1` [GIGANTETROCIN A] gave a Ratio [9] of 1.5 and a Ratio [8] of 0.9.
With `CCCCCCCCCC[C@H](O)[C@H](O)CCCC[C@H]1CC[C@H]([C@H]2CC[C@H]([C@H](O)CCCCC[C@@H](O)CC3=C[C@H](C)OC3=O)O2)O1` [GLABRACIN A] the LC50 [10] was 0.13 µg/mL (≈ 0.203 µM), the EC50 [3] was 0.001 µg/mL (≈ 0.00157 µM) and the EC50 [4] was 1.8 µg/mL (≈ 2.82 µM). For the same molecule, the ED50 [5] was 2.8 ×10⁻⁶ ug/ml, the EC50 [6] was 1.1 µg/mL (≈ 1.72 µM) and the ED50 [7] was 4.2 ×10⁻⁶ ug/ml. It also gave an ED50 [11] of 5.7 ×10⁻⁶ ug/ml.

Reference: ChEMBL document CHEMBL1141818, “Annonaceous acetogenins: recent progress” (J Nat Prod, 1999)
